Measured values: US11566007B2, “Ras inhibitors” (Revolution Medicines, Inc., priority 2019, dated 2023)

Tests used:
NCI-H358 (K-Ras G12C) = experiment: CellTiter-Glo cell viability assay, NCI-H358; type: cell-based, human; conditions: Homo sapiens, NCI-H358, 120 h, NCI-H358, 5-day treatment; class symbols; read-out: Additional H358 Cell Viability assay data (K-Ras G12C, IC50)
Method in brief: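 Cells seeded, compound added directly, 5-day exposure. Plates to RT ~30 min, CellTiter-Glo luminescence read. Normalized to DMSO avg (x100); 4-parameter logistic fit.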

KRAS Q61H = KRAS Q61H (Homo sapiens (Human), UniProt P01116+P62937, Q61H); experiment: Ras-Raf (BRAF RBD) disruption / FRET / MOA assay, KRAS Q61H; type: biochemical; conditions: Ras-Raf disruption/FRET/MOA assay; class symbols; read-out: KRAS Q61H FRET data IC50
Method in brief: (§1)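 Compounds were tested as a 10-point 3-fold dilution series from 30 μM final for their ability to drive ternary complex formation between nucleotide-loaded Ras and cyclophilin A, displacing the BRAF RBD. After 3 h at 25° C., anti-His Eu-W1024 (10 nM) and anti-GST allophycocyanin (50 nM) were added for 1.5 h. A TR-FRET ratio decrease versus DMSO gave IC50.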

KRAS G12S = KRAS G12S (Homo sapiens (Human), UniProt P01116+P62937, G12S); experiment: Ras-Raf (BRAF RBD) disruption / FRET / MOA assay, KRAS G12S; type: biochemical; conditions: Ras-Raf disruption/FRET/MOA assay; class symbols; read-out: KRAS G12S FRET data IC50
Method in brief: (§2)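 TR-FRET read-out: a drop in ratio relative to DMSO wells marks disruption of the Ras:RAF complex, reported as IC50. Compounds (3-fold series, 10 points, top 30 μM final) incubated 3 h at 25° C before Eu-anti-His 10 nM and APC-anti-GST 50 nM, 1.5 h more.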

NRAS WT = NRAS WT (Homo sapiens (Human), UniProt P01111+P62937); experiment: Ras-Raf (BRAF RBD) disruption / FRET / MOA assay, NRAS WT; type: biochemical; conditions: read-out: IC50* NRAS WT FRET data
Method in brief: as §1

KRAS G12V = KRAS G12V (Homo sapiens (Human), UniProt P01116+P62937, G12V); experiment: Ras-Raf (BRAF RBD) disruption / FRET / MOA assay, KRAS G12V; type: biochemical; conditions: read-out: IC50* KRAS G12V FRET data
Method in brief: as §2

NRAS G12C = NRAS G12C (Homo sapiens (Human), UniProt P01111+P62937, G12C); experiment: Ras-Raf (BRAF RBD) disruption / FRET / MOA assay, NRAS G12C; type: biochemical; conditions: read-out: IC50* NRAS G12C FRET data
Method in brief: as §2

NRAS Q61K = NRAS Q61K (Homo sapiens (Human), UniProt P01111+P62937, Q61K); experiment: Ras-Raf (BRAF RBD) disruption / FRET / MOA assay, NRAS Q61K; type: biochemical; conditions: NRAS Q61K; Ras-Raf disruption/FRET/MOA assay; read-out: IC50* NRAS Q61K FRET data
Method in brief: as §1

KRAS G13D = KRAS G13D (Homo sapiens (Human), UniProt P01116+P62937, G13D); experiment: Ras-Raf (BRAF RBD) disruption / FRET / MOA assay, KRAS G13D; type: biochemical; conditions: read-out: IC50* KRAS G13D FRET data
Method in brief: as §2

K-Ras G13C = K-Ras G13C (Homo sapiens (Human), UniProt P01116+P62937, G13C); experiment: Ras-Raf (BRAF RBD) disruption / FRET / MOA assay, KRAS G13C; type: biochemical; conditions: KRAS G13C; Ras-Raf disruption/FRET/MOA assay; read-out: IC50* KRAS G13C FRET data
Method in brief: as §2

NRAS Q61R = NRAS Q61R (Homo sapiens (Human), UniProt P01111+P62937, Q61R); experiment: Ras-Raf (BRAF RBD) disruption / FRET / MOA assay, NRAS Q61R; type: biochemical; conditions: NRAS Q61R; Ras-Raf disruption/FRET/MOA assay; read-out: IC50* NRAS Q61R FRET data
Method in brief: as §1

KRAS WT = KRAS WT (Homo sapiens (Human), UniProt P01116+P62937); experiment: Ras-Raf (BRAF RBD) disruption / FRET / MOA assay, KRAS WT; type: biochemical; conditions: read-out: IC50* KRAS WT FRET data
Method in brief: as §2

KRAS G12D = KRAS G12D (Homo sapiens (Human), UniProt P01116+P62937, G12D); experiment: Ras-Raf (BRAF RBD) disruption / FRET / MOA assay, KRAS G12D; type: biochemical; conditions: Ras-Raf disruption/FRET/MOA assay; class symbols; read-out: KRAS G12D FRET data IC50
Method in brief: as §2

Measured: IC50

Chain of KRAS Q61H (P01116-2 other isoform, or with tags, fused parts or gaps Q61H): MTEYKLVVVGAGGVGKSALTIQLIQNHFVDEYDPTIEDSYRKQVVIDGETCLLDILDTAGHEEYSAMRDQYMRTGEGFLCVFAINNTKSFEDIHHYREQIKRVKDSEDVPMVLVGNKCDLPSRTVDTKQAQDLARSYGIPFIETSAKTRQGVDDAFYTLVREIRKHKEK
Chain of KRAS Q61H (P62937 whole entry): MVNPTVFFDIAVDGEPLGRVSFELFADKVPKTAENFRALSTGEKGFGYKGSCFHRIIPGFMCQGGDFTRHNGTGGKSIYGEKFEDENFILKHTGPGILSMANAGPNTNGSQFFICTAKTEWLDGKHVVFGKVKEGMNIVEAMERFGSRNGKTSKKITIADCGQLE
Chain of NRAS G12C (P01111 whole entry G12C): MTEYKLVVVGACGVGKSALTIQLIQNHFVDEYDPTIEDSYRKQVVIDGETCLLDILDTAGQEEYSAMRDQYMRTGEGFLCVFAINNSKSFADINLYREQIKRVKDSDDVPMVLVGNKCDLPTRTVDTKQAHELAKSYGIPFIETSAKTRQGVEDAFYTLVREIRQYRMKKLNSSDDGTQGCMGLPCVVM
Chain of NRAS G12C (P62937 whole entry): as the sequence (P62937 whole entry) above
Chain of KRAS WT (P01116-2 other isoform, or with tags, fused parts or gaps): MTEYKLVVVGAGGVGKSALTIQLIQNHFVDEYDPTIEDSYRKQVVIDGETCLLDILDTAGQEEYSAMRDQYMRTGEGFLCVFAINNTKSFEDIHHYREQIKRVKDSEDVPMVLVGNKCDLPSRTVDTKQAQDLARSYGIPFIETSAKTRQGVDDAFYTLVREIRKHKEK
Chain of KRAS WT (P62937 whole entry): as the sequence (P62937 whole entry) above
Chain of KRAS G12V (P01116-2 other isoform, or with tags, fused parts or gaps G12V): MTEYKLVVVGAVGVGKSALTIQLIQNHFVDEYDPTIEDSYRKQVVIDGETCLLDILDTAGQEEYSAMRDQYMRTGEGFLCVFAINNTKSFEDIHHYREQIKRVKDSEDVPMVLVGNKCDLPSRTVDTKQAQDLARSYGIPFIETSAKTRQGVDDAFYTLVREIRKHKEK
Chain of KRAS G12V (P62937 whole entry): as the sequence (P62937 whole entry) above
Chain of K-Ras G13C (P01116-2 other isoform, or with tags, fused parts or gaps G13C): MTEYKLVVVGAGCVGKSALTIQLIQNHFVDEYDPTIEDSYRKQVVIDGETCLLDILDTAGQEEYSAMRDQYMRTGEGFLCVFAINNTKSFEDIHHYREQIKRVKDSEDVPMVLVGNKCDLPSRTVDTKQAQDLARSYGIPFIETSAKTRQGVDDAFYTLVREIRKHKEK
Chain of K-Ras G13C (P62937 whole entry): as the sequence (P62937 whole entry) above
Chain of NRAS WT (P01111 whole entry): as the sequence (P01111 whole entry G12C) above, with C12G counted along it
Chain of NRAS WT (P62937 whole entry): as the sequence (P62937 whole entry) above
Chain of KRAS G13D (P01116-2 other isoform, or with tags, fused parts or gaps G13D): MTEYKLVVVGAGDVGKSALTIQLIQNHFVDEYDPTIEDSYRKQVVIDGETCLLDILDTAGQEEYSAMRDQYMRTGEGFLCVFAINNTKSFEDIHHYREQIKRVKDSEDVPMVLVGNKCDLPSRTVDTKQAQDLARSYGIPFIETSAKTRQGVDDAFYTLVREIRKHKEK
Chain of KRAS G13D (P62937 whole entry): as the sequence (P62937 whole entry) above
Chain of KRAS G12S (P01116-2 other isoform, or with tags, fused parts or gaps G12S): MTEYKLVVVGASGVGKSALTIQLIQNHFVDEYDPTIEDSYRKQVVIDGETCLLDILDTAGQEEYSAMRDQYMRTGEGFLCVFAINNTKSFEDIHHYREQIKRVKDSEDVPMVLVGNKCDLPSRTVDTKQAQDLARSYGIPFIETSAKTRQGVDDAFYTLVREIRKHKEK
Chain of KRAS G12S (P62937 whole entry): as the sequence (P62937 whole entry) above
Chain of NRAS Q61K (P01111 whole entry Q61K): as the sequence (P01111 whole entry G12C) above, with C12G, Q61K counted along it
Chain of NRAS Q61K (P62937 whole entry): as the sequence (P62937 whole entry) above
Chain of KRAS G12D (P01116-2 other isoform, or with tags, fused parts or gaps G12D): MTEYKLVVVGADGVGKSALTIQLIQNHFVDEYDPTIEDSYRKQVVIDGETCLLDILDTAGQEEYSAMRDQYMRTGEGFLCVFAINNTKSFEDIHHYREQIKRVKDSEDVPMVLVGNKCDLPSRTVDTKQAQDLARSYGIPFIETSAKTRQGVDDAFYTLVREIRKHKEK
Chain of KRAS G12D (P62937 whole entry): as the sequence (P62937 whole entry) above
Chain of NRAS Q61R (P01111 whole entry Q61R): as the sequence (P01111 whole entry G12C) above, with C12G, Q61R counted along it
Chain of NRAS Q61R (P62937 whole entry): as the sequence (P62937 whole entry) above

CO[C@@H](C)c1ncccc1-c1c2c3cc(ccc3n1CC(F)(F)F)-c1cccc(c1)C[C@H](NC(=O)[C@@H](COC1CN(C(=O)C#CC(C)(C)N(C)C)C1)C(C)C)C(=O)N1CCC[C@H](N1)C(=O)OCC(C)(C)C2 (atropisomer, axis not shown) [Example A376]
> 10 µM: NRAS Q61K | KRAS G13D | NRAS Q61R | KRAS G12D
< 0.01 µM: NCI-H358 (K-Ras G12C) | NRAS G12C
1 to 10 µM: all other assays above

CCn1c(-c2cccnc2[C@H](C)OC)c2c3cc(ccc31)-c1csc(n1)C[C@H](NC(=O)C[C@H](C)OC1CN(C(=O)C#CC(C)(C)N(C)C)C1)C(=O)N1CCC[C@H](N1)C(=O)OCC(C)(C)C2 (atropisomer, axis not shown) [Example A637]
0.01 to 0.1 µM: NCI-H358 (K-Ras G12C) | NRAS G12C
> 10 µM: NRAS Q61R | KRAS G12D
1 to 10 µM: all other assays above

C=CC(=O)N1CC[C@H](C(=O)N2CC[C@H](C)[C@H]2C(=O)N[C@H]2Cc3cccc(c3)-c3ccc4c(c3)c(c(-c3cccnc3[C@H](C)OC)n4CC)CC(C)(C)COC(=O)[C@@H]3CCCN(N3)C2=O)C1 (atropisomer, axis not shown) [Example A494]
> 10 µM: KRAS G12S | KRAS G12V | KRAS G13D | KRAS G12D
0.1 to 1 µM: NCI-H358 (K-Ras G12C) | KRAS Q61H | NRAS G12C
1 to 10 µM: all other assays above

C=CC(=O)N1CC[C@H](C(=O)N(C)[C@H](C(=O)N[C@H]2CC3=NN=C(O3)c3ccc4c(c3)c(c(-c3cccnc3[C@H](C)OC)n4CC)CC(C)(C)COC(=O)[C@@H]3CCCN(N3)C2=O)C(C)C)C1 (atropisomer, axis not shown) [Example A447]
0.1 to 1 µM: NCI-H358 (K-Ras G12C) | NRAS G12C
> 10 µM: NRAS Q61K | KRAS G13D | NRAS Q61R | KRAS G12D
1 to 10 µM: all other assays above

CO[C@@H](C)c1ncccc1-c1c2c3cc(ccc3n1CC(F)(F)F)-c1csc(n1)C[C@H](NC(=O)[C@@H](COC1CN(C(=O)C#CC(C)(C)N(C)C)C1)C(C)C)C(=O)N1CCC[C@H](N1)C(=O)OCC(C)(C)C2 (atropisomer, axis not shown) [Example A343]
< 0.01 µM: NCI-H358 (K-Ras G12C) | NRAS G12C
> 10 µM: KRAS G13D | KRAS G12D
1 to 10 µM: all other assays above

C=CC(=O)N1CC[C@H](C(=O)N(C)[C@H](C(=O)N[C@H]2Cc3cc(cc(C(F)F)c3)-c3ccc4c(c3)c(c(-c3cc(N5CCN(C)CC5)cnc3[C@H](C)OC)n4CC(F)(F)F)CC(C)(C)COC(=O)[C@@H]3CCCN(N3)C2=O)C(C)C)C1 (atropisomer, axis not shown) [Example A357]
< 0.01 µM: NCI-H358 (K-Ras G12C)
1 to 10 µM: NRAS Q61K | KRAS G12D
0.1 to 1 µM: all other assays above

CO[C@@H](C)c1ncccc1-c1c2c3cc(ccc3n1CC(F)(F)F)-c1nc(co1)C[C@H](NC(=O)[C@H](C(C)C)N(C)C(=O)C1(F)CCN(C(=O)C#CC(C)(C)N(C)C)CC1)C(=O)N1CCC[C@H](N1)C(=O)OCC(C)(C)C2 (atropisomer, axis not shown) [Example A578]
< 0.01 µM: NCI-H358 (K-Ras G12C) | NRAS G12C
0.01 to 0.1 µM: KRAS Q61H | K-Ras G13C
0.1 to 1 µM: all other assays above

CCn1c(-c2cccnc2[C@H](C)OC)c2c3cc(ccc31)-c1cc(CF)cc(c1)C[C@H](NC(=O)[C@H](C(C)C)N1CC[C@]3(CCN(C(=O)C#CC(C)(C)N(C)C)C3)C1=O)C(=O)N1CCC[C@H](N1)C(=O)OCC(C)(C)C2 (atropisomer, axis not shown) [Example A673]
0.1 to 1 µM: KRAS Q61H | KRAS G12V | K-Ras G13C
< 0.01 µM: NCI-H358 (K-Ras G12C) | NRAS G12C
1 to 10 µM: all other assays above

C=CC(=O)N1C[C@H](C)N(C(=O)N(C)[C@H](C(=O)N[C@H]2Cc3nc(cs3)-c3ccc4c(c3)c(c(-c3cccnc3[C@H](C)OC)n4CC)CC(C)(C)COC(=O)[C@@H]3CCCN(N3)C2=O)C(C)C)C[C@@H]1C (atropisomer, axis not shown) [Example A385]
< 0.01 µM: NCI-H358 (K-Ras G12C)
0.1 to 1 µM: KRAS G12V | KRAS G13D | KRAS G12D
0.01 to 0.1 µM: all other assays above

C=CC(=O)N1CCOC2(CCN(C(=O)N(C)[C@H](C(=O)N[C@H]3Cc4nc(n(C)n4)-c4ccc5c(c4)c(c(-c4cccnc4[C@H](C)OC)n5CC(F)(F)F)CC(C)(C)COC(=O)[C@@H]4CCCN(N4)C3=O)C(C)C)CC2)C1 (atropisomer, axis not shown) [Example A606]
0.01 to 0.1 µM: KRAS Q61H | K-Ras G13C
1 to 10 µM: KRAS G12D
0.1 to 1 µM: all other assays above
